# Experimental data: US20230234948A1, “CYCLOPROPYL DIHYDROQUINOLINE SULFONAMIDE COMPOUNDS” (AMGEN INC., priority 2020, published 2023)
# Target: T1, Human NaV1.7 (Homo sapiens, UniProt Q15858)
# T1 construct: expressed in transfected cells; host or cells: Spiking HEK cells (without Kir2.1 transfection)
# Experiment: Ionworks Barracuda (IWB) automated patch clamp assay
# Assay type: cell-based
# Details: human NaV1.7 in HEK cells, population patch-clamp, state- and use-dependent voltage protocol; read-out: hNaV1.7 IWB-U IC50
# Procedure: Ionworks Barracuda (IWB) Automated Patch Clamp Assay (Same Protocol for Both Human and Mouse)
# Human NaV1.7 currents were recorded in population patch-clamp mode with the IWB automated electrophysiology system (Molecular Devices, LLC, Sunnyvale, Calif.). Spiking HEK cells (without Kir2.1 transfection) were cultured and prepared for recordings as previously described for IonWorks Quattro testing^1. The external solution consisted of the following (in mM): NaCl 140, KCl 5, CaCl2 2, MgCl2 1, HEPES 10, and glucose 11, pH 7.4, with N-methyl-D-glucamine at 320 mOsmol. […] From a holding potential of −110 mV, currents were elicited by a train of 26 depolarizations of 150 ms duration to −20 mV at a frequency of 5 Hz. Cells were then clamped to −20 mV for a period of 4 minutes in the presence of a single concentration of test compound. Following this compound incubation period, cells were clamped to −110 mV for three seconds to recover unbound channels and put through the same 26 pulse voltage protocol as above. Peak inward current during the 26th pulse to −20 mV in the presence of compound was divided by the peak inward current evoked by the 26th pulse to −20 mV in the absence of compound to determine percent inhibition. Concentration-response curves of percent inhibition as a function of concentration were generated to calculate IC50 values as described in Kornecook, T. J.; Yin, R.; Altmann, S.; et al. Pharmacologic Characterization of AMG8379, a Potent and Selective Small Molecule Sulfonamide Antagonist of the Voltage-Gated Sodium Channel NaV1. 7.
# The potency of the compounds of the present invention were evaluated on human NaV1.7 channels using the above described IonWorks Barracuda automated electrophysiology platform that evaluates the ability of compounds to block sodium conductance through NaV1.7 channels. A voltage-protocol that prosecutes both state-dependent as well as use-dependent inhibition was used as these modes of action are thought to be more relevant for the native state of NaV1.7 channels in pain sensing neurons in vivo.
# T1 sequence (Q15858 whole entry): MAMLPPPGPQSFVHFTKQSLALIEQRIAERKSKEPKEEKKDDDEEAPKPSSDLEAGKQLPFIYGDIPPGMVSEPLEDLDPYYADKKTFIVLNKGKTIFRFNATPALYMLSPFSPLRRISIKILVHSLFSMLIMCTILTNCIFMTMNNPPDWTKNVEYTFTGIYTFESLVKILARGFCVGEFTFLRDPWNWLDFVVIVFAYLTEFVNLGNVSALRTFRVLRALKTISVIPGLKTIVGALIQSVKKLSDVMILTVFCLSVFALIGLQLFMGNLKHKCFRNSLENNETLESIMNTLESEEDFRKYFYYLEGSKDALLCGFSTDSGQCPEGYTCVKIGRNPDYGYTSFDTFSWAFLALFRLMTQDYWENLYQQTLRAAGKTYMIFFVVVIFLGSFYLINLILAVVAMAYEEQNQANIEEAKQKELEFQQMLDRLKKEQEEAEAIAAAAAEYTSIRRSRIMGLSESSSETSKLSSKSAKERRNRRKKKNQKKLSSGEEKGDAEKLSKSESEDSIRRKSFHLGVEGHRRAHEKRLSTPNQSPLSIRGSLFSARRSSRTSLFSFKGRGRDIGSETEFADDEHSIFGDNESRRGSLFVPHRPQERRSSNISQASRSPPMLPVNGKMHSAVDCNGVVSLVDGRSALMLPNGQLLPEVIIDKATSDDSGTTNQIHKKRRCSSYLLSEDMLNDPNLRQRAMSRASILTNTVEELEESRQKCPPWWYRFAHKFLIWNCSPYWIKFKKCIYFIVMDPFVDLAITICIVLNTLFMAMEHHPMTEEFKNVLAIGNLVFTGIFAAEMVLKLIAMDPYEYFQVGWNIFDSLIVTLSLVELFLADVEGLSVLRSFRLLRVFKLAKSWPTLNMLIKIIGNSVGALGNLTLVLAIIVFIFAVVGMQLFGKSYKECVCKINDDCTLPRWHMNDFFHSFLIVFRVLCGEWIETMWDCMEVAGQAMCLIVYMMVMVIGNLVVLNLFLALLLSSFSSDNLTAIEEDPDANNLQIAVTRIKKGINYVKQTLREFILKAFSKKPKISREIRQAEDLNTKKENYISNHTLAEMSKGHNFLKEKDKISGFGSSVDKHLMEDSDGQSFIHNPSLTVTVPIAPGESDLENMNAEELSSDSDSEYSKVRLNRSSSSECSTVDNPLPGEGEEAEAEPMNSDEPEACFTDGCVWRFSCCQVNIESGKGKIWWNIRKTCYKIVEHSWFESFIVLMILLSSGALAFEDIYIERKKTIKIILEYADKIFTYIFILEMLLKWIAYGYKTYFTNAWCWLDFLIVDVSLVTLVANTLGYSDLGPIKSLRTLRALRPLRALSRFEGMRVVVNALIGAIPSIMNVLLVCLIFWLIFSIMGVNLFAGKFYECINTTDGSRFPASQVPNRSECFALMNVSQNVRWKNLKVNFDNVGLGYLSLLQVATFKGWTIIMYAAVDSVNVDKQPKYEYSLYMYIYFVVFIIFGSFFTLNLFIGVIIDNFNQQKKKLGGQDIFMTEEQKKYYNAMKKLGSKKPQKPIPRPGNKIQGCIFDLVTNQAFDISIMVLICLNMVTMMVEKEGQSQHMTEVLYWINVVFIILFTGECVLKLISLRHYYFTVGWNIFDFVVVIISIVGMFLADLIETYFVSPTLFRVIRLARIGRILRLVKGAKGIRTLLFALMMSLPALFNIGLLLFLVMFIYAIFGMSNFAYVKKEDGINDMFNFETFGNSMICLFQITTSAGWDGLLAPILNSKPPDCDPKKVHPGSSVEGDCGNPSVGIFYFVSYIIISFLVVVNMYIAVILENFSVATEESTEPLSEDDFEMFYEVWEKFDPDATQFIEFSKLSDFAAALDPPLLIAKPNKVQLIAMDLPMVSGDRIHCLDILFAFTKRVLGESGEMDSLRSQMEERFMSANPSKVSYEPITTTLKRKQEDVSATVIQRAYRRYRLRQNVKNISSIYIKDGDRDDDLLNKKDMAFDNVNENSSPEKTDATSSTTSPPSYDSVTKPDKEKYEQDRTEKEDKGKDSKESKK
row,IC50,Structure (SMILES)
1,11 nM,"COc1cc([C@H]2C[C@@H]2C(F)(F)F)c(F)cc1-n1c(=O)ccc2cc(S(=O)(=O)Nc3ccon3)ccc21 (atropisomer, axis not shown; (P)) [Example 4, (P)-1-(5-fluoro-2-methoxy-4-((1S,2S)-2-(trifluoromethyl)cyclopropyl)phenyl)-N-(isoxazol-3-yl)-2-oxo-1,2-dihydroquinoline-6-sulfonamide]"
2,9 nM,"COc1cc([C@@H]2C[C@H]2C(F)(F)F)c(F)cc1-n1c(=O)ccc2cc(S(=O)(=O)Nc3ccon3)ccc21 (atropisomer, axis not shown; (P)) [Example 5, (P)-1-(5-fluoro-2-methoxy-4-((1R,2R)-2-(trifluoromethyl)cyclopropyl)phenyl)-N-(isoxazol-3-yl)-2-oxo-1,2-dihydroquinoline-6-sulfonamide]"
3,20 nM,"COc1cc([C@@H]2C[C@H]2C)c(F)cc1-n1c(=O)ccc2cc(S(=O)(=O)Nc3ccon3)ccc21 (atropisomer, axis not shown; (P)) [Example 6, (P)-1-(5-fluoro-2-methoxy-4-((1R,2R)-2-methylcyclopropyl)phenyl)-N-(isoxazol-3-yl)-2-oxo-1,2-dihydroquinoline-6-sulfonamide]"
4,16 nM,"COc1cc([C@H]2C[C@@H]2C)c(F)cc1-n1c(=O)ccc2cc(S(=O)(=O)Nc3ccon3)ccc21 (atropisomer, axis not shown; (P)) [Example 7, (P)-1-(5-fluoro-2-methoxy-4-((1S,2S)-2-methylcyclopropyl)phenyl)-N-(isoxazol-3-yl)-2-oxo-1,2-dihydroquinoline-6-sulfonamide]"
5,8 nM,"COc1cc([C@@H]2C[C@H]2c2ccccc2)c(F)cc1-n1c(=O)ccc2cc(S(=O)(=O)Nc3ccon3)ccc21 (atropisomer, axis not shown; (P)) [Example 8, (P)-1-(5-fluoro-2-methoxy-4-((1R,2R)-2-phenylcyclopropyl)phenyl)-N-(isoxazol-3-yl)-2-oxo-1,2-dihydroquinoline-6-sulfonamide]"
6,4 nM,"COc1cc([C@H]2C[C@@H]2c2ccccc2)c(F)cc1-n1c(=O)ccc2cc(S(=O)(=O)Nc3ccon3)ccc21 (atropisomer, axis not shown; (P)) [Example 9, (P)-1-(5-fluoro-2-methoxy-4-((1S,2S)-2-phenylcyclopropyl)phenyl)-N-(isoxazol-3-yl)-2-oxo-1,2-dihydroquinoline-6-sulfonamide]"
7,66 nM,"COc1cc([C@H]2CC2(F)F)c(F)cc1-n1c(=O)ccc2cc(S(=O)(=O)Nc3ccon3)ccc21 (atropisomer, axis not shown; (P)) [Example 10, (P)-(R)-1-(4-(2,2-difluorocyclopropyl)-5-fluoro-2-methoxyphenyl)-N-(isoxazol-3-yl)-2-oxo-1,2-dihydroquinoline-6-sulfonamide]"
8,59 nM,"COc1cc([C@@H]2CC2(F)F)c(F)cc1-n1c(=O)ccc2cc(S(=O)(=O)Nc3ccon3)ccc21 (atropisomer, axis not shown; (P)) [Example 11, (P)-(S)-1-(4-(2,2-difluorocyclopropyl)-5-fluoro-2-methoxyphenyl)-N-(isoxazol-3-yl)-2-oxo-1,2-dihydroquinoline-6-sulfonamide]"
9,17 nM,"COc1cc([C@H]2C[C@@H]2C(F)(F)F)c(Cl)cc1-n1c(=O)ccc2cc(S(=O)(=O)Nc3ncccn3)ccc21 (atropisomer, axis not shown; (P)) [Example 12, (P)-1-(5-chloro-2-methoxy-4-((1S,2S)-2-(trifluoromethyl)cyclopropyl)phenyl)-2-oxo-N-(pyrimidin-2-yl)-1,2-dihydroquinoline-6-sulfonamide]"
10,12 nM,"COc1cc([C@@H]2C[C@H]2C(F)(F)F)c(Cl)cc1-n1c(=O)ccc2cc(S(=O)(=O)Nc3ncccn3)ccc21 (atropisomer, axis not shown; (P)) [Example 13, (P)-1-(5-chloro-2-methoxy-4-((1R,2R)-2-(trifluoromethyl)cyclopropyl)phenyl)-2-oxo-N-(pyrimidin-2-yl)-1,2-dihydroquinoline-6-sulfonamide]"
11,19 nM,"COc1cc([C@@H]2C[C@H]2C(F)(F)F)c(F)cc1-n1c(=O)ccc2cc(S(=O)(=O)Nc3cccnn3)ccc21 (atropisomer, axis not shown; (P)) [Example 16, (P)-1-(5-fluoro-2-methoxy-4-((1R,2R)-2-(trifluoromethyl)cyclopropyl)phenyl)-2-oxo-N-(pyridazin-3-yl)-1,2-dihydroquinoline-6-sulfonamide]"
12,16 nM,"COc1cc([C@H]2C[C@@H]2C(F)(F)F)c(F)cc1-n1c(=O)ccc2cc(S(=O)(=O)Nc3cccnn3)ccc21 (atropisomer, axis not shown; (P)) [Example 17, (P)-1-(5-fluoro-2-methoxy-4-((1S,2S)-2-(trifluoromethyl)cyclopropyl)phenyl)-2-oxo-N-(pyridazin-3-yl)-1,2-dihydroquinoline-6-sulfonamide]"
13,7 nM,"COc1cc([C@@H]2C[C@H]2C(F)(F)F)c(Cl)cc1-n1c(=O)ccc2cc(S(=O)(=O)Nc3ccon3)ccc21 (atropisomer, axis not shown; (P)) [Example 18, (P)-1-(5-chloro-2-methoxy-4-((1R,2R)-2-(trifluoromethyl)cyclopropyl)phenyl)-N-(isoxazol-3-yl)-2-oxo-1,2-dihydroquinoline-6-sulfonamide]"
14,6 nM,"COc1cc([C@H]2C[C@@H]2C(F)(F)F)c(Cl)cc1-n1c(=O)ccc2cc(S(=O)(=O)Nc3ccon3)ccc21 (atropisomer, axis not shown; (P)) [Example 19, (P)-1-(5-chloro-2-methoxy-4-((1S,2S)-2-(trifluoromethyl)cyclopropyl)phenyl)-N-(isoxazol-3-yl)-2-oxo-1,2-dihydroquinoline-6-sulfonamide]"
15,24 nM,"COc1cc([C@@H]2C[C@H]2C(F)(F)F)c(F)cc1-n1c(=O)ccc2cc(S(=O)(=O)Nc3ncccn3)ccc21 (atropisomer, axis not shown; (P)) [Example 20, (P)-1-(5-fluoro-2-methoxy-4-((1R,2R)-2-(trifluoromethyl)cyclopropyl)phenyl)-2-oxo-N-(pyrimidin-2-yl)-1,2-dihydroquinoline-6-sulfonamide]"
16,35 nM,"COc1cc([C@H]2C[C@@H]2C(F)(F)F)c(F)cc1-n1c(=O)ccc2cc(S(=O)(=O)Nc3ncccn3)ccc21 (atropisomer, axis not shown; (P)) [Example 21, (P)-1-(5-fluoro-2-methoxy-4-((1S,2S)-2-(trifluoromethyl)cyclopropyl)phenyl)-2-oxo-N-(pyrimidin-2-yl)-1,2-dihydroquinoline-6-sulfonamide]"
17,16 nM,"COc1cc(C2(C(F)(F)F)CC2)c(F)cc1-n1c(=O)ccc2cc(S(=O)(=O)Nc3ncccn3)ccc21 (atropisomer, axis not shown; (P)) [Example 23, (P)-1-(5-fluoro-2-methoxy-4-(1-(trifluoromethyl)cyclopropyl)phenyl)-2-oxo-N-(pyrimidin-2-yl)-1,2-dihydroquinoline-6-sulfonamide]"
18,6 nM,"COc1cc(C2(C(F)(F)F)CC2)c(Cl)cc1-n1c(=O)ccc2cc(S(=O)(=O)Nc3ccon3)ccc21 (atropisomer, axis not shown; (P)) [Example 24, (P)-1-(5-chloro-2-methoxy-4-(1-(trifluoromethyl)cyclopropyl)phenyl)-N-(isoxazol-3-yl)-2-oxo-1,2-dihydroquinoline-6-sulfonamide]"
19,22 nM,"COc1cc(C2(C(F)(F)F)CC2)c(Cl)cc1-n1c(=O)ccc2cc(S(=O)(=O)Nc3ncccn3)ccc21 (atropisomer, axis not shown; (P)) [Example 25, (P)-1-(5-chloro-2-methoxy-4-(1-(trifluoromethyl)cyclopropyl)phenyl)-2-oxo-N-(pyrimidin-2-yl)-1,2-dihydroquinoline-6-sulfonamide]"
20,42 nM,"COc1cc([C@@H]2C[C@H]2C(F)(F)F)c(C)cc1-n1c(=O)ccc2cc(S(=O)(=O)Nc3ncccn3)ccc21 (atropisomer, axis not shown; (P)) [Example 28, (P)-1-(2-methoxy-5-methyl-4-((1R,2R)-2-(trifluoromethyl)cyclopropyl)phenyl)-2-oxo-N-(pyrimidin-2-yl)-1,2-dihydroquinoline-6-sulfonamide]"
21,32 nM,"COc1cc([C@H]2C[C@@H]2C(F)(F)F)c(C)cc1-n1c(=O)ccc2cc(S(=O)(=O)Nc3ncccn3)ccc21 (atropisomer, axis not shown; (P)) [Example 29, (P)-1-(2-methoxy-5-methyl-4-((1S,2S)-2-(trifluoromethyl)cyclopropyl)phenyl)-2-oxo-N-(pyrimidin-2-yl)-1,2-dihydroquinoline-6-sulfonamide]"
